Data taken from ChEMBL document CHEMBL1201862, “PubChem BioAssay data set” (2004).
Calls of active or inactive are those of the source. Cut-off read from the data, not from the text of the source, for most assays here: actives have a measured EC50 and inactives only a lower limit.

Legend:
[1] = molecular target: T1, Corticotropin-releasing factor receptor 2/Corticotropin-releasing factor-binding protein (Homo sapiens, UniProt P24387+Q13324); experiment: Dose Response confirmation of uHTS hits for small molecule antagonists of the CRF-binding protein and CRF-R2 receptor complex.; type: functional; conditions: read-out: IC50_Mean
T1 sequence (Q13324 whole entry): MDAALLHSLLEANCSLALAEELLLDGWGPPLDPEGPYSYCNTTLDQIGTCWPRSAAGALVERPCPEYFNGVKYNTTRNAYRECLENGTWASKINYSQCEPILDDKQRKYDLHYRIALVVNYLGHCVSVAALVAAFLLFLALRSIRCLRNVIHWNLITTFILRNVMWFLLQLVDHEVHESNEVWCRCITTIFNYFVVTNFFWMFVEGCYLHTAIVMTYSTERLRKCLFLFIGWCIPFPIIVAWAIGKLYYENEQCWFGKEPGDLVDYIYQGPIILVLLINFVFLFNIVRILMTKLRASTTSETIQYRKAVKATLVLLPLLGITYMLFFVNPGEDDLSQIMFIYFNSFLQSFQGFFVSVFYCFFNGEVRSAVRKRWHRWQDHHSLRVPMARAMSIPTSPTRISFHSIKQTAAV
T1 sequence (P24387 whole entry): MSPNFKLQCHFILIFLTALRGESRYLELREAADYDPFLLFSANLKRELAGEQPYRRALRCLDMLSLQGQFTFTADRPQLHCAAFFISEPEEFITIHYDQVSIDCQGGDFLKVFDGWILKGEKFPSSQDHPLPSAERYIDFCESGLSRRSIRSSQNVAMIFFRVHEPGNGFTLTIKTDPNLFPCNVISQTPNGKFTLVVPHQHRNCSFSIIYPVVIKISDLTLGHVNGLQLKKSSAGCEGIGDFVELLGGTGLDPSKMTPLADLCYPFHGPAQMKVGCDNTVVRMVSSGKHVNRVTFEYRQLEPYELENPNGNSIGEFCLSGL

[2] = molecular target: T1, Corticotropin-releasing factor receptor 2/Corticotropin-releasing factor-binding protein; experiment: activators of CRF receptor 2 with binding protein – uHTS hits, confirmation (AID 602473); type: functional; conditions: read-out: EC50_Mean
[3] = molecular target: T2, RNA-binding protein pos-1 (Caenorhabditis elegans, UniProt G5EF15); experiment: inhibitors of POS-1/mex-3 RNA binding, dose response, biochemical, fluorescence polarization (AID 1964);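 note: purified POS-1 fused to maltose binding protein made in E. coli; potency of compounds blocking POS-1 binding to fluorescent RNA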
T2 sequence (G5EF15 whole entry): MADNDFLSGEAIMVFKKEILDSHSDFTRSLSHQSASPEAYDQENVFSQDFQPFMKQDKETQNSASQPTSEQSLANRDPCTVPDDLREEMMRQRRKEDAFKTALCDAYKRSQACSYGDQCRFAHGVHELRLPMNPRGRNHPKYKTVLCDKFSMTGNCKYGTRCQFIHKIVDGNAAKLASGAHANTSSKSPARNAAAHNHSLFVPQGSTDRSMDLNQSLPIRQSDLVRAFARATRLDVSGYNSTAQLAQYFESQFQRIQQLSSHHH

[4] = molecular target: T3, Zinc finger protein mex-5 (Caenorhabditis elegans, UniProt Q9XUB2); experiment: MEX-5/TCR-2 RNA interaction inhibitors, dose response, biochemical, C. elegans, fluorescence polarization (AID 1960)
T3 sequence (Q9XUB2 whole entry): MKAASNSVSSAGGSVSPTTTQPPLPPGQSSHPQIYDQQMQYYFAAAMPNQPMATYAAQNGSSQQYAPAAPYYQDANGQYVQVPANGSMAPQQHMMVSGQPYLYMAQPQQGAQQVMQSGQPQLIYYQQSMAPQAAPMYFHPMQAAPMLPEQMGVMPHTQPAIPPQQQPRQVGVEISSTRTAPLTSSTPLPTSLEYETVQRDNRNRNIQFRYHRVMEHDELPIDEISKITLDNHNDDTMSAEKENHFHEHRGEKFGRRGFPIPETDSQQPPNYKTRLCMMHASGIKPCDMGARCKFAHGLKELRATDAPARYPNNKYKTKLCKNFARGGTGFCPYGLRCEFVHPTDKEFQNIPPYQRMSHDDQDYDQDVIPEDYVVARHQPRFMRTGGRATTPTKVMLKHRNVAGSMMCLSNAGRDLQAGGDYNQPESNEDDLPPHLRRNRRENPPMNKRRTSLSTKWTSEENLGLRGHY

[5] = molecular target: T4, Rac GTPase-activating protein 1 (Homo sapiens, UniProt Q9H0H5); experiment: MgcRacGAP GTPase-activating activity inhibitors, confirmation, biochemical, ADP Hunter fluorescence, primary and confirmatory (AID 624330); type: functional
T4 sequence (Q9H0H5 whole entry): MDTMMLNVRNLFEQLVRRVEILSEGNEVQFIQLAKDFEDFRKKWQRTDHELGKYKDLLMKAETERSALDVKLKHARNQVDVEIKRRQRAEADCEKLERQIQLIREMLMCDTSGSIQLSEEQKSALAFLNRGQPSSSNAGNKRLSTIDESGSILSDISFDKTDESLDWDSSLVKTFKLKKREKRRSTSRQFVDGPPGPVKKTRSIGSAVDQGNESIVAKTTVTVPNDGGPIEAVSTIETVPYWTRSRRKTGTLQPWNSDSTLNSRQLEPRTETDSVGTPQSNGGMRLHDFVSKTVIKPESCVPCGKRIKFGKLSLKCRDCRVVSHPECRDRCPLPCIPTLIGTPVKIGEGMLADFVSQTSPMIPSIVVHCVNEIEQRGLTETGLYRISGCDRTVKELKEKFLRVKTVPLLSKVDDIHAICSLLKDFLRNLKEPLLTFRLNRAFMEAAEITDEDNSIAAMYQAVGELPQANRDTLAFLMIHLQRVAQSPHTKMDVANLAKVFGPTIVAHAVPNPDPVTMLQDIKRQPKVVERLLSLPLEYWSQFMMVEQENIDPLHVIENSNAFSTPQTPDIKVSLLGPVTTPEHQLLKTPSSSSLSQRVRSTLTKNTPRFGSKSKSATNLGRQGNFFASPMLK

[6] = Luminescence Cell-Based Dose Response HTS to Identify Activators of Luciferase Translation or Activity in H4 […] Cells. [Related pubchem assays: 1829 (Project Summary), 1814 (Primary HTS)]; type: functional
INS1 = experiment: beta cell apoptosis inhibitors, cytokine rescue, dose response, luminescence, retest (AID 449756); type: functional, cell-based; conditions: Rattus norvegicus, INS1;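 note: cell death triggered by IL-1 beta plus TNF-alpha plus IFN-gamma mixture; protective hits raise ATP signal compared with cytokine alone wells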
[7] = inhibitors of intracellular T. cruzi replication, confirmation, NIH3T3 host cells, beta-gal luminescence (AID 2044); type: functional, cell-based;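 note: intracellular parasites grown in NIH/3T3 mouse fibroblasts as host cells; luminescent beta-galactosidase reporter signal from transgenic T. cruzi replicating inside host cells; inhibitors lower the luminescence signal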
[8] = cytotoxicity toward NIH3T3 fibroblasts, dose response, counter-screen, cell-based, ATP luminescence, mouse fibroblasts (AID 2010); type: functional;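 note: cells exposed to compound for about 90 hours before reading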
Streptococcus = experiment: Group A Streptococcus viability loss, dose response, counter-screen for streptokinase expression inhibitor project, luminescence, BacTiterGlo (AID 1915); type: functional, organism-based;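 note: potency for reduction of bacterial viability or growth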
[9] = system: Streptococcus sp. 'group A'; experiment: growth inhibition of control SK(-) GAS strain, dose response, counter-screen for streptokinase expression inhibitor project, luminescence, kanamycin, BacTiterGlo, confirmation (AID 1900); type: functional, organism-based

With `O=C(c1cccc([N+](=O)[O-])c1)c1ccc2c(c1)OCCOCCOCCO2` the IC50 [1] was > 47.1 µM (inactive) and the EC50 [2] was > 53 µM (inactive).

For `COc1cccc(C(=O)NNc2nc(C)cc(C)n2)c1`, the EC50 [3] was > 300 µM (not active) and the EC50 [4] was 127 µM (active).

In the case of `CCOc1ccc(N2C(=O)NC(=O)/C(=C\Nc3ccc(N4CCOCC4)cc3)C2=O)cc1`, the EC50 [3] is reported as 17.6 µM (inconclusive) and the EC50 [4] is reported as 60.4 µM (inconclusive).

For `Cc1nn(-c2ccccc2)c(C)c1NC(=O)COC(=O)c1ccccc1OC(F)F`, the IC50 [1] was > 47.1 µM (inactive) and the EC50 [2] was > 53 µM (inactive).

With `Oc1ccc(/C=N/NC2=NCCCCC2)c(O)c1` the IC50 [5] was 43.2 µM (active).

With `COc1ccc(Nc2ncnc3c2oc2ccccc23)cc1` the EC50 [6] was 7.34 µM (active).

In the case of `Oc1ccc(-c2csc(Nc3ncccn3)n2)cc1`, the IC50 [5] is reported as 21.4 µM (active).

With `Clc1cc(-c2ccc(/C=N/n3cnnc3)o2)ccc1Br` the EC50 [3] was 59.4 µM (active) and the EC50 [4] was 81.6 µM (active).

For `CC1=CC(C)(C)N2C(=O)C3(C(C#N)=C(N)OC4=C3C(=O)CCC4)c3c(C)c(C)cc1c32` (configuration not stated), the EC50 [3] was > 300 µM (not active) and the EC50 [4] was > 300 µM (not active).

In the case of `Cc1ccc(NC(=O)CCS(=O)(=O)c2cc3c(cc2Cl)NC(=O)CO3)cc1`, the EC50 [3] is reported as > 300 µM (not active) and the EC50 [4] is reported as > 300 µM (not active).

For `CC1CC(C)CN(CC(=O)NC(c2ccccc2)c2ccccc2)C1` (configuration not stated), the IC50 [5] was 231 µM (active).

For `COc1ccc(C2c3ccc(O)cc3Oc3ncn(Cc4ccco4)c(=N)c32)cc1OC` (configuration not stated), the EC50 [3] was > 300 µM (not active) and the EC50 [4] was > 300 µM (not active).

For `CCOC(=O)c1cc(CC)sc1NC=C1C(=O)NC(=S)NC1=O`, the EC50 [3] was > 300 µM (not active) and the EC50 [4] was 15 µM (active).

With `Cc1ccc(-c2cnc(NC(=O)CCC(=O)N(C)Cc3ccccc3)n2C)cc1` the AC50 (INS1) was 21.3 µM (active).

In the case of `CCOC(=O)c1[nH]c2ccc(OC)cc2c1NC(=O)c1ccccc1C(=O)O`, the IC50 [5] is reported as 109 µM (active).

For `O=C(CN1CCN(c2ccccn2)CC1)Nc1ccc(F)cc1`, the IC50 [5] was 78.9 µM (active).

With `COc1ccccc1-c1cc(C(=O)NN)[nH]n1` the IC50 [1] was > 47.1 µM (inactive) and the EC50 [2] was > 53 µM (inactive).

In the case of `COc1cccc2c(=O)n(CC(=O)N3CCc4ccccc43)ccc12`, the EC50 [2] is reported as > 53 µM (inactive).

For `COc1ccc(Cl)c(Cn2c(NCc3ccco3)nc3c2c(=O)n(C)c(=O)n3C)c1`, the AC50 (INS1) was 3.27 µM (active).

For `CCn1c(S)nc2c(=O)n(C)c(=O)n(C)c21`, the IC50 [5] was 21.1 µM (active).

With `COc1ccc(-c2c[n+](-c3ccc(Cl)cc3)c3n2CCCCC3)cc1` the AC50 (INS1) was 2.16 µM (active), the EC50 [7] was 0.781 µM (active) and the EC50 [8] was > 60 µM (not active).

In the case of `CCCC(C)NC(=O)c1ccc(C2SCC(=O)N2Cc2ccco2)cc1` (configuration not stated), the EC50 [3] is reported as > 300 µM (not active) and the EC50 [4] is reported as > 300 µM (not active).

With `CCN(CC)CCN1c2ccccc2Sc2ccc3ccccc3c21` the AC50 (INS1) was 14 µM (active).

In the case of `COc1ccc(N2CCN(c3ccc(C(N)=O)cc3[N+](=O)[O-])CC2)cc1`, the IC50 [5] is reported as 158 µM (active).

In the case of `N=C(Cc1ccc([N+](=O)[O-])cc1)NOC(=O)c1ccc(Br)cc1`, the IC50 [1] is reported as 9.38 µM (active) and the EC50 [2] is reported as > 53 µM (inactive).

With `CCN(C(=O)COC(=O)Cc1cccc2ccccc12)C1CCS(=O)(=O)C1` (configuration not stated) the IC50 [1] was > 47.1 µM (inactive) and the EC50 [2] was > 53 µM (inactive).

For `COc1cc(/C=C/C(=O)OCC(=O)NCCC2=CCCCC2)ccc1O`, the IC50 [5] was 49 µM (active).

For `COc1ccc(C2=NOC(CN=C(N)S)C2)cc1` (configuration not stated), the EC50 (Streptococcus) was 10.9 µM (active) and the EC50 [9] was 3.77 µM (active).

With `Cc1ccccc1[N+](=O)[O-]` the IC50 [1] was > 47.1 µM (inactive) and the EC50 [2] was > 53 µM (inactive).

In the case of `CCOc1ccccc1Nc1ccnc2cc(Cl)ccc12`, the IC50 [1] is reported as > 47.1 µM (inactive) and the EC50 [2] is reported as > 53 µM (inactive).

In the case of `O=C(CCn1c2c(c3ccccc31)CCCC2)NNC(=O)c1ccccc1C(=O)O`, the EC50 [2] is reported as 7.66 µM (active).

For `COc1ccc(NC(=O)C(=O)NCC(=O)Nc2cccc(C(F)(F)F)c2)cc1`, the IC50 [1] was > 47.1 µM (inactive) and the EC50 [2] was > 53 µM (inactive).

With `CC(C)c1ccc(CNc2ccc(N3CCOCC3)cc2)cc1` the IC50 [5] was 12.4 µM (active).

With `COc1cccc(F)c1C(=O)NC(=O)Nc1ccc2nc(C)oc2c1` the EC50 [3] was 17.8 µM (active) and the EC50 [4] was 17.4 µM (active).

With `Nc1nc(CN2CCc3ccccc3C2)nc(Nc2ccccc2)n1` the IC50 [1] was > 47.1 µM (inactive) and the EC50 [2] was > 53 µM (inactive).

With `COc1cc(C(=O)NCc2ccccc2Cl)ccc1OCC(=O)N1CCOCC1` the IC50 [1] was > 47.1 µM (inactive) and the EC50 [2] was > 53 µM (inactive).

In the case of `CC(C)OCCCn1/c(=N/C(=O)c2cccs2)c(C#N)cc2c(=O)n3ccccc3nc21`, the EC50 [3] is reported as > 300 µM (not active) and the EC50 [4] is reported as > 300 µM (not active).

With `CCC(C)n1c(=N)c(C#N)cc2c(=O)n3cccc(C)c3nc21` (configuration not stated) the EC50 [3] was 296 µM (active) and the EC50 [4] was 21.5 µM (inconclusive).

In the case of `COc1ccc(CNC(=O)CN2CCN(c3ccc(F)cc3)CC2)cc1`, the IC50 [1] is reported as > 47.1 µM (inactive) and the EC50 [2] is reported as > 53 µM (inactive).

For `C#CCOc1ccccc1CNC1CCN(Cc2ccccc2)CC1`, the IC50 [5] was 64.9 µM (active).

In the case of `Cc1ccc(/C(O)=C/c2nc3cc(C)ccc3oc2=O)cc1`, the EC50 [3] is reported as 7.64 µM (inconclusive) and the EC50 [4] is reported as 1.64 µM (inconclusive).
